Assay results published in patent publication EP4631938A1, “NITROGEN-CONTAINING HETEROCYCLE WITH SEROTONIN RECEPTOR-BINDING ACTIVITY AND CARBOCYCLIC DERIVATIVE” (Shionogi & Co., Ltd, priority 2022, dated 2024).
Read-outs that look alike come from different tables or passages of the source.

Columns and labels:
[1] = target: T1, human recombinant 5-HT2A receptor (Homo sapiens, UniProt P28223); experiment: Test Example 1-2: 5-HT2A receptor binding inhibition test ([3H]-Ketanserin; non-specific ligand Ketanserin)
T1 construct: expressed in transfected cells; host or cells: Jump-In HEK cells (membrane preparation)
Method: The Kd value is calculated when the lot of the cell membrane is changed. 1 mmol/L non-specific binding calculating compound dissolved in DMSO or DMSO is previously dispensed to the microplate by 0.5 µL, and the cell membrane is diluted with an Assay buffer. The radioactive ligand solution is diluted step by step, and counts are checked with a liquid scintillator. The Assay buffer containing diluted cell membranes is dispensed by 50 µL/well into the microplate. The radioactive ligand solution is then dispensed by 50 µL/well into the microplate and the plate is sealed. The microplate is allowed to stand for 1.5 hours at room temperature (25°C). During this time, 50 mmol/L Tris-HCl (pH 7.4) is dispensed by 50 µL/well into the UniFilter plate and allowed to stand at 4°C for 1 hour or longer. Thereafter, filtration is performed with a Cell Harvester (PerkinElmer). The radioactive ligand solution is dispensed by 10 µL/well into empty wells of the UniFilter plate. After drying the UniFilter plate at room temperature, MicroScinti20 is dispensed by 50 µL/well into the UniFilter plate, and the plate is sealed. UniFilter plate is allowed to stand at room temperature overnight. The radioactivity of [^3H]-Ketanserin bound to the 5-HT2A receptor is measured using Microbeta2 (PerkinElmer) at a measurement time of 1 min/well. The Saturation curve is drawn from the measured value, and the Kd value is calculated from the slope of the Scatchard Plot.
A compound solution dissolved in DMSO is dispensed to a microplate by 0.5 µL, and a cell membrane and a hot ligand are each diluted with an Assay buffer. The Assay buffer containing diluted cell membrane is then dispensed by 50 µL/well into the microplate. The radioactive ligand solution is then dispensed by 50 µL/well into the microplate and the plate is sealed. Thereafter, the microplate is allowed to stand at room temperature (25°C) for 1.5 hours. During this time, 50 mmol/L Tris-HCl (pH 7.4) is dispensed by 50 µL/well into the UniFilter plate and allowed to stand at 4°C for 1 hour or longer. Thereafter, filtration is performed with a Cell Harvester (PerkinElmer). After drying the UniFilter plate at room temperature, MicroScinti20 is dispensed by 50 µL/well into the UniFilter plate, and the plate is sealed. UniFilter plate is allowed to stand at room temperature overnight. The radioactivity of [^3H]-Ketanserin bound to the 5-HT2A receptor is measured using Microbeta2 (PerkinElmer) at a measurement time of 1 min/well. Non-specific binding is calculated from the radioactivity of [^3H]-Ketanserin in the presence of 500 µmol/L Ketanserin of unlabeled ligand, and total binding is calculated from the radioactivity of [^3H]-Ketanserin in the absence of the compound of the present invention (Vehicle). Finally, the Ki value is calculated from the dose-response curve.
(§1) (The binding activity of the compound according to the present invention is calculated from the following binding inhibition rate (%).) Inhibition rate (%) = [1−(c−a)/(b−a)] × 100 [formula] • a; average cpm of non-specific binding • b; average cpm of total binding • c; cpm in the presence of the test compound
(§2) The compounds of the present invention were tested essentially as described above.

[2] = target: T2, human recombinant 5-HT2C receptor (Homo sapiens, UniProt P28335); experiment: Test Example 2: 5-HT2C receptor binding inhibition test ([3H]-Mesulergine; non-specific ligand Serotonin HCl); conditions: human serotonin 5-HT2C receptor binding activity
T2 construct: expressed in transfected cells; host or cells: Jump-In HEK cells (membrane preparation)
T2 sequence (P28335 33-458): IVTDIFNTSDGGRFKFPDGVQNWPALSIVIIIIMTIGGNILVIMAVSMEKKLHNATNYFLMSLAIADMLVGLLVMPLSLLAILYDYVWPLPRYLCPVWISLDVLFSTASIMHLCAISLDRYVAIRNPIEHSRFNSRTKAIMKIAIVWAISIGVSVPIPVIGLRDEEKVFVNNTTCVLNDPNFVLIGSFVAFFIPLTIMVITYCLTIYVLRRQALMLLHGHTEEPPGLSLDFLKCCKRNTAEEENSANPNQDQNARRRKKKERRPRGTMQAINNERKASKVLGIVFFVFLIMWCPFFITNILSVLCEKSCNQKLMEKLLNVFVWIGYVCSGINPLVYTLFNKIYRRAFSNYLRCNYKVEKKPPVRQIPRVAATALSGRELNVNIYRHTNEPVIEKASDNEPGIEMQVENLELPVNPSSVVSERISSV
Method: The Kd value is calculated when the lot of the cell membrane is changed. 1 mmol/L non-specific binding calculating compound dissolved in DMSO or DMSO is previously dispensed to the microplate by 0.5 µL, and the cell membrane is diluted with an Assay buffer. The radioactive ligand solution is diluted step by step, and counts are checked with a liquid scintillator. The Assay buffer containing diluted cell membranes is dispensed by 50 µL/well into the microplate. The radioactive ligand solution is then dispensed by 50 µL/well into the microplate and the plate is sealed. The microplate is allowed to stand at 37°C for 2 hours. During this time, 50 mmol/L Tris-HCl (pH 7.4) is dispensed by 50 µL/well into the GF/B UniFilter plate and allowed to stand at 4°C for 1 hour or longer. Thereafter, filtration is performed with a Cell Harvester (PerkinElmer). The radioactive ligand solution is dispensed by 10 µL/well into empty wells of the GF/B UniFilter plate. After drying the GF/B UniFilter plate at room temperature, MicroScinti20 is dispensed by 50 µL/well into the GF/B UniFilter plate, and the plate is sealed. GF/B UniFilter plate is allowed to stand at room temperature overnight. The radioactivity of [^3H]-Mesulergine bound to the 5-HT2C receptor is measured using Microbeta2 (PerkinElmer) at a measurement time of 1 min/well. The Saturation curve is drawn from the measured value, and the Kd value is calculated from the slope of the Scatchard Plot.
A compound solution dissolved in DMSO is dispensed to a microplate by 0.5 µL, and a cell membrane and a hot ligand are each diluted with an Assay buffer. The Assay buffer containing diluted cell membrane is then dispensed by 50 µL/well into the microplate. The radioactive ligand solution is then dispensed by 50 µL/well into the microplate and the plate is sealed. The microplate is then allowed to stand at 37°C for 2 hours. During this time, 50 mmol/L Tris-HCl (pH 7.4) is dispensed by 50 µL/well into the GF/B UniFilter plate and allowed to stand at 4°C for 1 hour or longer. Thereafter, filtration is performed with a Cell Harvester (PerkinElmer). After drying the GF/B UniFilter plate at room temperature, MicroScinti20 is dispensed by 50 µL/well into the GF/B UniFilter plate, and the plate is sealed. GF/B UniFilter plate is allowed to stand at room temperature overnight. The radioactivity of [^3H]-Mesulergine bound to the 5-HT2C receptor is measured using Microbeta2 (PerkinElmer) at a measurement time of 1 min/well. Non-specific binding is calculated from the radioactivity of [^3H]-Mesulergine in the presence of 500 µmol/L Serotonin HCl of unlabeled ligand, and total binding is calculated from the radioactivity of [^3H]-Mesulergine in the absence of the compound of the present invention (Vehicle). Finally, the Ki value is calculated from the dose-response curve.
as §1, §2

[3] = [3H]-Ketanserin; non-specific binding with 500 µmol/L Ketanserin; room temperature (25°C), 1.5 hours; read-out: h 5-HT2A Ki
[4] = read-out: h 5-HT2A Ki; [3H]-Ketanserin; non-specific binding with 500 µmol/L Ketanserin; room temperature (25°C), 1.5 hours

T1 sequence (P28223 whole entry): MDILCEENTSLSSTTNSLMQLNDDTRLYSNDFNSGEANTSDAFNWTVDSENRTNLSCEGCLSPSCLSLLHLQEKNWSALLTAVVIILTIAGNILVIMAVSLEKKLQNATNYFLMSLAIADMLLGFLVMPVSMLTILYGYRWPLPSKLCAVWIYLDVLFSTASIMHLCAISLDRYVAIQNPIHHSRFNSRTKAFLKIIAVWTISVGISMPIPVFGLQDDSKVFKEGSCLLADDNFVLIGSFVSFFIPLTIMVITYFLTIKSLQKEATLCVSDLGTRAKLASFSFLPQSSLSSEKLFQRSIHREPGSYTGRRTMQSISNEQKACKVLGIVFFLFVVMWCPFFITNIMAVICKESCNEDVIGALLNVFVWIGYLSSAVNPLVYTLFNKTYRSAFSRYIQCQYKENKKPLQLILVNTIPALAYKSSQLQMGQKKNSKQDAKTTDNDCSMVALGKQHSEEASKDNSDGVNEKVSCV

Row | Compound | Ki [1, 3] | Ki [2] | Ki [1, 4]
1 | COCc1nc(C)c(-c2cc(Nc3ncc(C4CC4(F)F)cc3Cl)ncc2OCCO)c(C)n1 (racemic) [Compound I-194] | 8.31 nM | 6.01 nM | –
2 | Cc1nc(C2CCCO2)nc(C)c1-c1cc(Nc2ncc(C(F)(F)F)cc2F)ncc1OCCO (racemic) [Compound I-198] | 5.3 nM | 9.63 nM | –
3 | Cc1nc(OCC2CCCO2)nc(C)c1-c1cc(Nc2ncc(C(F)(F)F)cc2Cl)ncc1OCCO (racemic) [Compound I-214] | 1.66 nM | 8.87 nM | –
4 | Cc1nc(C2CCO2)nc(C)c1-c1cc(Nc2ncc(C(F)(F)F)cc2Cl)ncc1OCCO (racemic) [Compound I-216] | 1.81 nM | 5.53 nM | –
5 | Cc1nc(COC2CCCOC2)nc(C)c1-c1cc(Nc2ncc(C(F)(F)F)cc2Cl)ncc1OCCO (racemic) [Compound I-382] | 2.44 nM | 3.43 nM | –
6 | CC(CO)Oc1cnc(Nc2ncc(C(F)(F)F)cc2F)cc1-c1c(Br)cnn1C (single isomer, unassigned) [Compound I-224] | – | – | 0.521 nM
7 | CC(CO)Oc1cnc(Nc2ncc(C(F)(F)F)cc2F)cc1-c1c(Br)cnn1C (single isomer, unassigned) [Compound I-225] | – | – | 0.396 nM
8 | Cn1ncc(Br)c1-c1cc(Nc2ncc(Cl)cn2)ccc1OCCO [Compound I-119] | 0.315 nM | – | –
9 | Cc1nc(C)c(-c2cc(Nc3ncc(C(F)(F)F)cc3F)c(F)cc2OCCO)c(C)n1 [Compound I-146] | 0.678 nM | – | –
10 | Cc1cnn(C)c1-c1cc(Nc2ncc(Cl)cc2F)c(F)cc1OCCO [Compound I-160] | 0.21 nM | 3.01 nM | –
11 | Cn1ncc(Cl)c1-c1cc(Nc2ncc(C(F)(F)F)cn2)c(F)cc1OCCO [Compound I-161] | 0.361 nM | 1.13 nM | –
12 | Cn1ncc(Cl)c1-c1cc(Nc2ncc(Cl)cn2)c(F)cc1OCCO [Compound I-162] | 0.395 nM | 4.25 nM | –
13 | Cn1ncc(Cl)c1-c1cc(Nc2ccc(Cl)cn2)c(F)cc1OCCO [Compound I-163] | 0.216 nM | 1.26 nM | –
14 | Cn1ncc(Cl)c1-c1cc(Nc2ncc(F)cc2F)c(F)cc1OCCO [Compound I-164] | 0.325 nM | 2.09 nM | –
15 | Cn1ncc(Br)c1-c1cc(Nc2ncc(F)cn2)c(F)cc1OCCO [Compound I-165] | 0.389 nM | 9.78 nM | –
16 | Cc1nc(C)c(-c2cc(Nc3ncc(Cl)cc3F)c(F)cc2OCCO)c(C)n1 [Compound I-166] | 0.67 nM | 5.57 nM | –
17 | Cc1nc(C)c(-c2cc(Nc3ccc(Cl)cn3)c(F)cc2OCCO)c(C)n1 [Compound I-167] | 0.511 nM | 5.37 nM | –
18 | Cn1ncc(Br)c1-c1cc(Nc2ncc(OC(F)(F)F)cc2F)c(F)cc1OCCO [Compound I-168] | 0.248 nM | 0.162 nM | –
19 | COc1cnc(Nc2cc(-c3c(Cl)cnn3C)c(OCCO)cc2F)nc1 [Compound I-169] | 0.738 nM | 9.97 nM | –
20 | Cn1ncc(F)c1-c1cc(Nc2ccc(C(F)(F)F)cn2)c(F)cc1OCCO [Compound I-170] | 0.212 nM | 5.45 nM | –
21 | Cn1ncc(F)c1-c1cc(Nc2ncc(Cl)cc2F)c(F)cc1OCCO [Compound I-171] | 0.16 nM | 5.81 nM | –
22 | Cc1cc(Cl)cnc1Nc1cc(-c2c(C)cnn2C)c(OCCO)cc1F [Compound I-172] | 0.812 nM | 2.49 nM | –
23 | Cc1nc(C)c(-c2cc(Nc3ncc(Cl)cc3C)c(F)cc2OCCO)c(C)n1 [Compound I-173] | 1.42 nM | 5.11 nM | –
24 | Cc1nc(C)c(-c2cc(Nc3ncc(OC(F)(F)F)cc3F)c(F)cc2OCCO)c(C)n1 [Compound I-174] | 0.888 nM | 2.15 nM | –
25 | Cc1nc(C)c(-c2cc(Nc3ncc(C(F)(F)F)cc3C)c(F)cc2OCCO)c(C)n1 [Compound I-175] | 1.92 nM | 3.19 nM | –
26 | Cc1cc(OC(F)F)cnc1Nc1cc(-c2c(C)cnn2C)c(OCCO)cn1 [Compound I-176] | 0.453 nM | 6.81 nM | –
27 | Cc1nc(C)c(-c2cc(Nc3ncc(OCC(F)(F)C(F)(F)F)cc3Cl)ncc2OCCO)c(C)n1 [Compound I-250] | – | 2.43 nM | –
